Laboratory results: patent US7811817B2, “Establishment of a human embryonic stem cell line using mammalian cells” (Reliance Life Sciences Pvt. Ltd., priority 2005, dated 2010)

Key:
[1] = test system: HepG2, a human hepatocarcinoma cell line; assay: Exposure of HepG2 cells to carbon tetrachloride, enzyme release into supernatant (hepatotoxicity model); format: cell-based
[2] = test system: mouse ES cell-derived hepatocytes; assay: In vitro hepatotoxicity model using hepatocytes differentiated from mouse ES cells, enzyme release into supernatant; format: cell-based; settings: pretreatment 24 hr, 25 μM; 0.6% CCl4 for 180 minutes
Method: Hepatocytes were differentiated from mouse ES cells and exposed to carbon tetrachloride (0.6%) for 180 minutes in the absence and presence of N-acetylcysteine (NAC), an antioxidant (25 μM). Levels of the following enzymes were determined by biochemical methods: Panel A: SGOT; Panel B: SGPT; Panel C: ALP; and Panel D: LDH.
Mouse ES cells were differentiated into hepatocytes by the formation of EBs in a medium without LIF. After 4 days in suspension, 15-20 EBs were plated onto 35 mm culture dishes pre-coated with 1% matrigel (BD Biosciences, USA), and allowed to differentiate for 20-25 days. Concentration of growth factors, cytokines (e.g., bone morphogenetic proteins (BMP2 and BMP4), hepatocyte growth factor (HGF), acidic-fibroblast growth factor (aFGF), and basic-FGF (bFGF)) and corticosteroids (e.g., dexamethasone) were optimized for hepatic differentiation. The differentiated cells obtained were confirmed to be hepatocytes by checking the positive expression of hepatic markers by RT-PCR and immunocytochemistry. […]
The cell supernatant was used for the determination of SGPT, SGOT, ALP, and LDH levels, per the manufacturer's protocol. […] The samples were analyzed using a Konelab-20i autoanalyser (Thermo Clinical Lab Systems, Finland). The levels were expressed as units/Liter.

SMILES	time of maximum release of SGOT, SGPT, ALP and LDH ([1]; 0.6% CCl4)	SGOT, SGPT, ALP and LDH levels (enzyme release, hepatocyte damage) ([1]; 0.6% CCl4, exposure 30-240 minutes, cell supernatant)	effect on CCl4-induced increase in release of SGOT, SGPT, ALP and LDH [2]
ClC(Cl)(Cl)Cl [CCl4, carbon tetrachloride]	180 min	time-dependent increases	–
CC(=O)N[C@@H](CS)C(=O)O [N-acetylcysteine]	–	–	effectively blocked the increase in the release of these enzymes
